Laboratory results as given in publication PMC2866084 (Journal of medicinal chemistry, 2010).

How the values were obtained:
[1] = Double-sink PAMPA permeability; type: in vitro ADME; settings: pH 7.4
CD-1 mice = experiment: Dose range-finding toxicity study in male and female CD-1 mice; settings: for histopathology: after 7 days oral treatment; for body weights compared to vehicle-treated controls: all treated mice, 7 days oral
[2] = test system: Salmonella typhimurium tester strains TA98 and TA100; experiment: Ames assay for mutagenicity and cytotoxicity screening; type: cell-based; settings: TA98 and TA100, with and without S-9
in vivo = settings: male, CD-1, mouse, po, 50 mg/kg

In the case of `COc1cccc(CNCCCNc2ccnc3cc(Cl)ccc23)c1O` [Compound 20, 2-{[3-(7-Chloro-quinolin-4-ylamino)-propylamino]-methyl}-6-methoxy-phenol], the Papp at 30 min, 50 μM [1] is reported as 1360 ± 214 ×10⁻⁶ cm/s, the histopathology (CD-1 mice) is reported as “no findings related to the administration of the test articles” and the “body weights compared to vehicle-treated controls” value (CD-1 mice) is reported as “remained normal”.

Work on `CCN(CC)CCCC(C)Nc1ccnc2cc(C(F)(F)F)ccc12` (centres unmarked) [Compound 3] yielded a Papp at 30 min, 50 μM [1] of 2700 ± 107 ×10⁻⁶ cm/s.

With `CCCN(CCCNc1ccnc2cc(Cl)ccc12)CC1CC1` [Compound 4] the Papp at 30 min, 50 μM [1] was 1110 ± 176 ×10⁻⁶ cm/s and the “Bacterial mutagenicity, AMES test” value [2] was “no increase in mutagenicity”.

In the case of `CCN(CC)CCCC(C)Nc1ccnc2cc(Oc3ccccc3)ccc12` (centres unmarked) [Compound 1], the concentration at 24 h (in vivo) is reported as under 11.8 nM.

With `Clc1ccc2c(NCCCNCc3cccc4c3OCO4)ccnc2c1` [Compound 18, N-Benzo[1,3]dioxol-4-ylmethyl-N′-(7-chloro-quinolin-4-yl)-propane-1,3-diamine] the Papp at 30 min, 50 μM [1] was 2400 ± 652 ×10⁻⁶ cm/s, the “Bacterial mutagenicity, AMES test” value [2] was “no increase in mutagenicity” and the histopathology (CD-1 mice) was “no findings related to the administration of the test articles”. For the same compound, the “body weights compared to vehicle-treated controls” value (CD-1 mice) was “remained normal”.
